Source: US4605744A, “Imidazole derivatives” (Hoffmann-La Roche Inc., priority 1985, dated 1986)
Where a name gives a salt, the structure may show the parent alone.

Key:
C. diversus CDC 1663-72 = test: In vitro antibacterial activity (MIC); format: cell-based; conditions: Citrobacter koseri, CDC166372; C. diversus CDC 1663-72; read-out: MIC
How it was run: (§1)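 Inoculated with 1.5 μl per well of a 10^-2 overnight-culture dilution, Mueller-Hinton broth dilutions (128–0.008 μg/ml) are incubated overnight at 37° C. No-growth endpoint defines MIC.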

C. freundii CDC6 = test: In vitro antibacterial activity (MIC); format: cell-based; conditions: Citrobacter freundii, CDC6, C. freundii CDC6; read-out: MIC
How it was run: as §1

E. cloacae 6951 = test: In vitro antibacterial activity (MIC); format: cell-based; conditions: Enterobacter cloacae, 6951, E. cloacae 6951; read-out: MIC
How it was run: as §1

E. coli 387-1 = test: In vitro antibacterial activity (MIC); format: cell-based; conditions: Escherichia coli, 3871, E. coli 387-1; read-out: MIC
How it was run: as §1

E. coli 48 = test: In vitro antibacterial activity (MIC); format: cell-based; conditions: Escherichia coli, 48, E. coli 48; read-out: MIC
How it was run: as §1

E. coli 4 = test: In vitro antibacterial activity (MIC); format: cell-based; conditions: Escherichia coli, 4, E. coli 4; read-out: MIC
How it was run: as §1

E. coli 503-455 = test: In vitro antibacterial activity (MIC); format: cell-based; conditions: Escherichia coli, 503455
How it was run: as §1

E. coli 5152 [1] = test: In vitro antibacterial activity (MIC); format: cell-based; conditions: Escherichia coli, 5152
How it was run: as §1

E. coli R-563 = test: In vitro antibacterial activity (MIC); format: cell-based; conditions: Escherichia coli, R563, E. coli R-563; read-out: MIC
How it was run: as §1

K. pneumoniae 35 = test: In vitro antibacterial activity (MIC); format: cell-based; conditions: Klebsiella pneumoniae; K. pneumoniae 35; read-out: MIC
How it was run: as §1

K. pneumoniae 503-964 = test: In vitro antibacterial activity (MIC); format: cell-based; conditions: Klebsiella pneumoniae, 503964; K. pneumoniae 503-964; read-out: MIC
How it was run: as §1

P. aeruginosa 503-56 [2] = test: In vitro antibacterial activity (MIC); format: cell-based; conditions: Pseudomonas aeruginosa, 50356, P. aeruginosa 503-56
How it was run: as §1

P. aeruginosa 5700 = test: In vitro antibacterial activity (MIC); format: cell-based; conditions: Pseudomonas aeruginosa, 5700, P. aeruginosa 5700; read-out: MIC
How it was run: as §1

P. aeruginosa 8710 = test: In vitro antibacterial activity (MIC); format: cell-based; conditions: Pseudomonas aeruginosa; P. aeruginosa 8710; read-out: MIC
How it was run: as §1

P. aeruginosa B = test: In vitro antibacterial activity (MIC); format: cell-based; conditions: Pseudomonas aeruginosa, read-out: MIC
How it was run: as §1

P. aeruginosa Stone 130 = test: In vitro antibacterial activity (MIC); format: cell-based; conditions: Pseudomonas aeruginosa, STONE130, read-out: MIC
How it was run: as §1

S. faecalis C1 [3] = test: In vitro antibacterial activity (MIC); format: cell-based; conditions: Enterococcus faecalis; S. faecalis C1; read-out: MIC
How it was run: as §1

S. marcescens S1 = test: In vitro antibacterial activity (MIC); format: cell-based; conditions: Serratia marcescens, S1
How it was run: as §1

S. pneumoniae 6301 = test: In vitro antibacterial activity (MIC); format: cell-based; conditions: Streptococcus pneumoniae, 6301, S. pneumoniae 6301; read-out: MIC
How it was run: as §1

S. pneumoniae 6302 [4] = test: In vitro antibacterial activity (MIC); format: cell-based; conditions: Streptococcus pneumoniae, 6302, S. pneumoniae 6302; read-out: MIC
How it was run: as §1

S. pyogenes 503-782 = test: In vitro antibacterial activity (MIC); format: cell-based; conditions: Streptococcus pyogenes, 503782; S. pyogenes 503-782; read-out: MIC
How it was run: as §1

S. typhi P58A = test: In vitro antibacterial activity (MIC); format: cell-based; conditions: Salmonella enterica, TYPHI
How it was run: as §1

E. coli 5152 [5] = test: In vivo antibacterial activity (PD50); conditions: Escherichia coli, 5152, sc, challenge 4780 LD50s, 2 treatments, Table 11
E. aerogenes 8 = test: In vivo antibacterial activity (PD50); conditions: Klebsiella aerogenes, 8, sc, read-out: PD50, sc; challenge 10 LD50s; 2 treatments; Table 11
S. marcescens SM = test: In vivo antibacterial activity (PD50); conditions: Serratia marcescens; sc; challenge 489 LD50s; 2 treatments; Table 11
P. aeruginosa 503-56 [6] = test: In vivo antibacterial activity (PD50); conditions: Pseudomonas aeruginosa, 50356, sc, challenge 50 LD50s, 2 treatments, Table 11
S. aureus Smith = test: In vivo antibacterial activity (PD50); conditions: Staphylococcus aureus, sc, challenge 70 LD50s, 2 treatments, Table 11
S. pyogenes 4 = test: In vivo antibacterial activity (PD50); conditions: Streptococcus pyogenes, 4, sc, read-out: PD50
S. pneumoniae 6302 [7] = test: In vivo antibacterial activity (PD50); conditions: Streptococcus pneumoniae, 6302, sc, challenge 1000 LD50s, 1 treatment, Table 11
S. faecalis C1 [8] = test: In vivo antibacterial activity (PD50); conditions: Enterococcus faecalis, C1; sc; challenge 10 LD50s; 1 treatment; Table 11
P. aeruginosa 6148B = test: In vivo antibacterial activity (PD50); conditions: Pseudomonas aeruginosa, sc, challenge 32 LD50s, 2 treatments, Table 11
P. aeruginosa 6720 = test: In vivo antibacterial activity (PD50); conditions: Pseudomonas aeruginosa, 6720, sc, challenge 35 LD50s, 2 treatments, Table 11
P. aeruginosa 6799 = test: In vivo antibacterial activity (PD50); conditions: Pseudomonas aeruginosa, 6799, sc, sc; challenge 71 LD50s; 2 treatments; Table 11; read-out: PD50
K. pneumoniae 503-990A = test: In vivo activity alone and in combination (PD50, FIC); conditions: Klebsiella pneumoniae, 503990A, sc, alone
Description: In Tables 9-14, the results of the in vivo activity against certain microorganisms of compounds I, M and N as given. […] The results in these Tables and the PD50 's were determined by the procedure set forth on page 160 in Beskid et al., Antimicrobial Agents and Chemotherapy, Vol. 20, No. 2 pp. 159-167 (Aug. 1981) for "in vivo studies".
In the Tables, the fractional inhibitory concentration index (FIC) for synergistic combination of a compound of this invention (X) with known antibiotic compound (Y) is determined by the following formula:
FIC=(PD50 (X combination)/PD50 (X alone)+(PD50 (Y
combination)/PD50 (Y alone)
An FIC of ≤0.60 is indicative of synergy. The synergy rating in the Tables is as follows:
In the combination, the parts are parts by weight, i.e. 10 to 1 is 10 parts by weight to 1 part by weight.

`CC1(C)S[C@@H]2[C@H](N=CN3CCC(CCC4=NCCN4)CC3)C(=O)N2[C@H]1C(=O)O` [N, [2S-(2alpha,5alpha,6beta)]-6-[[[4-[4,5-dihydro-1H-imidazol-2-yl)ethyl]-1-piperidinyl]methylene]amino]-3,3-dimethyl-7-oxo-4-thia-1-azabicyclo[3.2.0]heptane-2-carboxylic acid hydrochloride] was tested, and the MIC (C. diversus CDC 1663-72) was 0.031 µg/mL, the MIC (C. freundii CDC6) was 0.031 µg/mL and the MIC (E. cloacae 6951) was 8 µg/mL. It also gave an MIC (E. coli 387-1) of 0.016 µg/mL, an MIC (E. coli 48) of 0.031 µg/mL and an MIC (E. coli 4) of 0.016 µg/mL. The MIC (E. coli 503-455) was 1 µg/mL, the MIC (E. coli 5152 [1]) was 8 µg/mL and the MIC (E. coli R-563) was 0.031 µg/mL. For the same compound, the MIC (K. pneumoniae 35) was 0.125 µg/mL, the MIC (K. pneumoniae 503-964) was 0.062 µg/mL and the MIC (P. aeruginosa 503-56 [2]) was 16 µg/mL. It also gave an MIC (P. aeruginosa 5700) of 0.062 µg/mL, an MIC (P. aeruginosa 8710) of 32 µg/mL and an MIC (P. aeruginosa B) of 0.062 µg/mL. The MIC (P. aeruginosa Stone 130) was over 128 µg/mL, the MIC (S. faecalis C1 [3]) was 64 µg/mL and the MIC (S. marcescens S1) was 2 µg/mL. It also gave an MIC (S. pneumoniae 6301) of 1 µg/mL, an MIC (S. pneumoniae 6302 [4]) of 2 µg/mL and an MIC (S. pyogenes 503-782) of 64 µg/mL. For the same compound, the MIC (S. typhi P58A) was 0.031 µg/mL, the ED50 (E. coli 5152 [5]) was 30 mg/kg and the ED50 (E. aerogenes 8) was over 250 mg/kg. The ED50 (S. marcescens SM) was 19 mg/kg, the ED50 (P. aeruginosa 503-56 [6]) was 43 mg/kg and the ED50 (S. aureus Smith) was 12 mg/kg. It also gave an ED50 (S. pyogenes 4) of 4.3 mg/kg, an ED50 (S. pneumoniae 6302 [7]) of 78 mg/kg and an ED50 (S. faecalis C1 [8]) of 62 mg/kg. The ED50 (P. aeruginosa 6148B) was 37 mg/kg, the ED50 (P. aeruginosa 6720) was 20 mg/kg and the ED50 (P. aeruginosa 6799) was over 250 mg/kg. The ED50 (K. pneumoniae 503-990A) was 5.5 mg/kg.
